Test results as given in PMC8160813, “Design, Synthesis, and Evaluation of Dihydropyranopyrazole Derivatives as Novel PDE2 Inhibitors for the Treatment of Alzheimer’s Disease” (Molecules, 2021).

Molecular target: T1, PDE2A (catalytic domain, 580–919) (Homo sapiens, UniProt O00408)
T1 construct: made in house; host or cells: E. coli BL21 (CodonPlus)
Assay: In vitro PDE2 enzymatic inhibition assay (3H-cGMP substrate)
Assay type: biochemical
Conditions: for inhibition at 0.5 µM / Inhibition Ratio (%) 0.5 μM / inhibition at 0.1 µM: PDE2; for inhibition at 0.5 µM / Inhibition Ratio (%) 0.5 μM: compound at 0.5 μM; for inhibition at 0.5 µM: read-out: Inhibition Ratio (%) 0.5 μM; for inhibition at 0.1 µM: compound at 0.1 μM, read-out: Inhibition Ratio (%) 0.1 μM; for IC50: means ± SD of three experiments, 3H-cGMP, 25 °C, 15 min, read-out: IC50 (nM) against PDE2
Description: Purification and expression of the recombinant pET15b-PDE2A plasmid (catalytic domain, 580–919) was performed following our previously reported method. The plasmid pET15b-PDE2A (catalytic domain, 580–919) was transferred to thawed competent E. coli BL21 cells (CodonPlus, Agilent Technologies, Santa Clara, CA, USA), which were grown in 2XYT medium with 100 μg/mL ampicillin and 20 μg/mL chloramphenicol at 37 °C until OD600 = 0.6–0.8. Then, 0.1 mM isopropylthiogalactoside was added for induction, and protein expression was induced by continuing to grow the cells at 16 °C for 24 h. After that, bacteria were collected by centrifugation and frozen overnight at −20 °C. The bacteria containing the recombinant plasmid of the target protein were subjected to cell disruption and passed through a Ni-NTA agarose affinity column, Q-Sepharose ion-exchange column and other steps. The purity can be 95% or more, and a typical purification batch produces 10–20 mg of PDE2A protein from 1.0 L of cell culture.
Using the appropriate concentration of ^3H-cGMP as the substrate, different compound solutions were added to the test group, DMSO was added to the negative control and blank control groups, and EHNA was added to the positive control group, followed by protein solution (the proteins were all diluted with Assay Buffer); Assay Buffer was added to the blank group. The enzymatic reaction was performed at room temperature (25 °C) for 15 min, and then, 0.2 M ZnSO4 was added to inactivate PDE2 and to stop the reaction. Then, 0.2 N Ba(OH)2 solution was added to precipitate the reaction product, and unreacted ^3H-cGMP remained in the supernatant. After mixing the system, it was centrifuged. The radioactivity of the supernatant was measured with a liquid scintillation counter, and the inhibitory activity of the compound against PDE2 was calculated. The above test was repeated three times (the IC50 test generally used 9 concentrations, and the single-point test was directly diluted with DMSO to the required concentration).

T1 sequence (O00408 580-919): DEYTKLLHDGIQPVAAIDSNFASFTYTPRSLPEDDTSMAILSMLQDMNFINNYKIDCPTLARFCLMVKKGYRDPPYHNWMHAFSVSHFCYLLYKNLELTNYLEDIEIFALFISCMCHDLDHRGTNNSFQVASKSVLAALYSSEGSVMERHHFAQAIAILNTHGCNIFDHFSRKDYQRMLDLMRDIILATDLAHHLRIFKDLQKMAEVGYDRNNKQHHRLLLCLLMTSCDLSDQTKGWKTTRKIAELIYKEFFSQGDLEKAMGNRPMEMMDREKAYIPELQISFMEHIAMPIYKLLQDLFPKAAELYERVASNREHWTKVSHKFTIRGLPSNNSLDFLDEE

| inhibition at 0.5 µM | inhibition at 0.1 µM | IC50 | SMILES | also measured |
| --- | --- | --- | --- | --- |
| 13.4% |  |  | COc1ccc(OC(=O)c2ccc(OC(F)(F)F)cc2)c(C2C(C#N)=C(N)Oc3[nH]nc(C)c32)c1 (stereo not drawn) [Compound 8a, 2-(6-Amino-5-cyano-3-methyl-1,4-dihydropyrano[2,3-c]pyrazol-4-yl)-4-methoxyphenyl-4-(trifluoromethoxy)benzoate] |  |
| 9.6% |  |  | COc1ccc(OCc2ccc(C(F)(F)F)cc2)c(C2C(C#N)=C(N(C)C)Oc3[nH]nc(C)c32)c1 (stereo not drawn) [Compound 16, 6-(Dimethylamino)-4-(5-methoxy-2-((4-(trifluoromethyl)benzyl)oxy)phenyl)-3-methyl-1,4-dihydropyrano[2,3-c]pyrazole-5-carbonitrile] |  |
| 87.3% |  |  | COc1ccc(OCc2ccc(C(F)(F)F)cc2)c(C2C(C#N)=C(N)Oc3[nH]nc(C)c32)c1 (single isomer, unassigned; (-)) [(−)-11h] | PDE2 inhibitory activity of resolved isomer (in words) (after chiral resolution of 11h): almost inactive |
| 48.8% |  |  | COc1ccc(OCc2ccc(OC(F)(F)F)cc2)c(C2C(C#N)=C(N)Oc3[nH]nc(C)c32)c1 (stereo not drawn) [Compound 11i, 6-Amino-4-(5-methoxy-2-((4-(trifluoromethoxy)benzyl)oxy)phenyl)-3-methyl-1,4-dihydropyrano[2,3-c]pyrazole-5-carbonitrile] |  |
| 0% |  |  | Cc1n[nH]c2c1C(c1cc(O)ccc1OCc1ccc(C(F)(F)F)cc1)C(C#N)=C(N)O2 (stereo not drawn) [Compound 11m, 6-Amino-4-(5-hydroxy-2-((4-(trifluoromethyl)benzyl)oxy)phenyl)-3-methyl-1,4-dihydropyrano[2,3-c]pyrazole-5-carbonitrile] | Inhibition Ratio (%) 0.5 μM: no inhibition |
| 8.2% |  |  | COc1ccc(OCCCc2ccc(C(F)(F)F)cc2)c(C2C(C#N)=C(N)Oc3[nH]nc(C)c32)c1 (stereo not drawn) [Compound 11o, 6-Amino-4-(5-methoxy-2-(3-(4-(trifluoromethyl)phenyl)propoxy)phenyl)-3-methyl-1,4-dihydropyrano[2,3-c]pyrazole-5-carbonitrile] |  |
| 4.12% |  |  | COc1ccc(OC(=O)CCc2ccc(Cl)cc2)c(C2C(C#N)=C(N)Oc3[nH]nc(C)c32)c1 (stereo not drawn) [Compound 8c, 2-(6-Amino-5-cyano-3-methyl-1,4-dihydropyrano[2,3-c]pyrazol-4-yl)-4-methoxyphenyl-3-(4-chlorophenyl)propanoate] |  |
| 6.12% |  |  | COc1ccc(OC(=O)CCCc2ccc(Cl)cc2)c(C2C(C#N)=C(N)Oc3[nH]nc(C)c32)c1 (stereo not drawn) [Compound 8d, 2-(6-Amino-5-cyano-3-methyl-1,4-dihydropyrano[2,3-c]pyrazol-4-yl)-4-methoxyphenyl-4-(4-chlorophenyl)butanoate] |  |
| 60.5% | 22.7% | 445.3 ± 3.4 nM | COc1ccc(OCc2ccc(C(F)(F)F)cc2)c(C2C(C#N)=C(N)Oc3[nH]ncc32)c1 (stereo not drawn) [Compound 11r, 6-Amino-4-(5-methoxy-2-((4-(trifluoromethyl)benzyl)oxy)phenyl)-1,4-dihydropyrano[2,3-c]pyrazole-5-carbonitrile] |  |
| 39.1% |  |  | COc1ccc(OC(=O)c2ccc(C(F)(F)F)cc2)c(C2C(C#N)=C(N)Oc3[nH]nc(C)c32)c1 (stereo not drawn) [Compound 8b, 2-(6-Amino-5-cyano-3-methyl-1,4-dihydropyrano[2,3-c]pyrazol-4-yl)-4-methoxyphenyl-4-(trifluoromethyl)benzoate] |  |
| 87.3% | 63.3% | 75.5 ± 2 nM | COc1ccc(OCc2ccc(C(F)(F)F)cc2)c(C2C(C#N)=C(N)Oc3[nH]nc(C)c32)c1 (racemic) [Compound 11h, 6-Amino-4-(5-methoxy-2-((4-(trifluoromethyl)benzyl)oxy)phenyl)-3-methyl-1,4-dihydropyrano[2,3-c]pyrazole-5-carbonitrile] |  |
| 72% | 38.3% | 154 ± 3.3 nM | Cc1ccc(OCc2ccc(C(F)(F)F)cc2)c(C2C(C#N)=C(N)Oc3[nH]nc(C)c32)c1 (stereo not drawn) [Compound 11k, 6-Amino-3-methyl-4-(5-methyl-2-((4-(trifluoromethyl)benzyl)oxy)phenyl)-1,4-dihydropyrano[2,3-c]pyrazole-5-carbonitrile] |  |
| 17.4% |  |  | Cc1n[nH]c2c1C(c1cc(OC(F)(F)F)ccc1OCc1ccc(C(F)(F)F)cc1)C(C#N)=C(N)O2 (stereo not drawn) [Compound 11p, 6-Amino-3-methyl-4-(5-(trifluoromethoxy)-2-((4-(trifluoromethyl)benzyl)oxy)phenyl)-1,4-dihydropyrano[2,3-c]pyrazole-5-carbonitrile] |  |
| 75.3% | 46.3% | 154 ± 6.2 nM | COc1ccc(OCc2ccc(C(F)(F)F)cc2)c(C2C(C#N)=C(N)Oc3[nH]nc(-c4ccccc4)c32)c1 (stereo not drawn) [Compound 11s, 6-Amino-4-(5-methoxy-2-((4-(trifluoromethyl)benzyl)oxy)phenyl)-3-phenyl-1,4-dihydropyrano[2,3-c]pyrazole-5-carbonitrile] |  |
| 79.2% | 48.1% | 115 ± 1.3 nM | COc1ccc(OCc2ccc(Cl)cc2)c(C2C(C#N)=C(N)Oc3[nH]nc(C)c32)c1 (stereo not drawn) [Compound 11f, 6-Amino-4-(2-((4-chlorobenzyl)oxy)-5-methoxyphenyl)-3-methyl-1,4-dihydropyrano[2,3-c]pyrazole-5-carbonitrile] |  |
| 20.7% |  |  | COc1ccc(OCCc2ccc(C(F)(F)F)cc2)c(C2C(C#N)=C(N)Oc3[nH]nc(C)c32)c1 (stereo not drawn) [Compound 11n, 6-Amino-4-(5-methoxy-2-(4-(trifluoromethyl)phenethoxy)phenyl)-3-methyl-1,4-dihydropyrano[2,3-c]pyrazole-5-carbonitrile] |  |
| 14.3% |  |  | COc1ccc(C2C(C#N)=C(N)Oc3[nH]nc(C)c32)c(OCc2ccccc2)c1 (stereo not drawn) [Compound 11b, 6-Amino-4-(2-(benzyloxy)-4-methoxyphenyl)-3-methyl-1,4-dihydropyrano [2,3-c] pyrazole-5-carbonitrile] |  |
| 0% |  |  | Cc1n[nH]c2c1C(c1cc(C(C)(C)C)ccc1OCc1ccc(C(F)(F)F)cc1)C(C#N)=C(N)O2 (stereo not drawn) [Compound 11j, 6-Amino-4-(5-(tert-butyl)-2-((4-(trifluoromethyl)benzyl)oxy)phenyl)-3-methyl-1,4-dihydropyrano[2,3-c]pyrazole-5-carbonitrile] | Inhibition Ratio (%) 0.5 μM: no inhibition |
| 43.4% |  |  | COc1cc(OCc2ccc(Cl)cc2)cc(C2C(C#N)=C(N)Oc3[nH]nc(C)c32)c1 (stereo not drawn) [Compound 4c, 6-Amino-4-(3-((4-chlorobenzyl)oxy)-5-methoxyphenyl)-3-methyl-1,4-dihydropyrano[2,3-c]pyrazole-5-carbonitrile] |  |
| 67.5% | 30.4% | 261 ± 11.2 nM | COc1ccc([C@H]2C(C#N)=C(N)Oc3[nH]nc(C)c32)cc1OCc1ccc(Cl)cc1 [(R)-LZ77] |  |
| 48% | 17.5% | 458 ± 16.2 nM | COc1ccc(COc2ccc(OC)cc2C2C(C#N)=C(N)Oc3[nH]nc(C)c32)cc1 (stereo not drawn) [Compound 11e, 6-Amino-4-(5-methoxy-2-((4-methoxybenzyl)oxy)phenyl)-3-methyl-1,4-dihydropyrano[2,3-c]pyrazole-5-carbonitrile] |  |
| 17.7% |  |  | COc1ccc(OCc2ccccc2)c(C2C(C#N)=C(N)Oc3[nH]nc(C)c32)c1 (stereo not drawn) [Compound 11d, 6-Amino-4-(2-(benzyloxy)-5-methoxyphenyl)-3-methyl-1,4-dihydropyrano [2,3-c] pyrazole-5-carbonitrile] |  |
| 10.3% |  |  | COc1cc(C2C(C#N)=C(N)Oc3[nH]nc(C)c32)c(OCc2ccc(C(F)(F)F)cc2)cc1Cl (stereo not drawn) [Compound 11t, 6-Amino-4-(4-chloro-5-methoxy-2-((4-(trifluoromethyl)benzyl)oxy)phenyl)-3-methyl-1,4-dihydropyrano[2,3-c]pyrazole-5-carbonitrile] |  |
| 27% |  |  | COc1ccc(COc2cc(OC)ccc2C2C(C#N)=C(N)Oc3[nH]nc(C)c32)cc1 (stereo not drawn) [Compound 11a, 6-Amino-4-(4-methoxy-2-((4-methoxybenzyl)oxy)phenyl)-3-methyl-1,4-dihydropyrano[2,3-c]pyrazole-5-carbonitrile] |  |
| 57.2% | 18.2% | 407 ± 37.7 nM | COc1ccc(C2C(C#N)=C(N)Oc3[nH]nc(C)c32)cc1OCc1ccc(Cl)cc1 (stereo not drawn) [4a (LZ77), 6-Amino-4-(3-((4-chlorobenzyl)oxy)-4-methoxyphenyl)-3-methyl-1,4-dihydropyrano[2,3-c]pyrazole-5-carbonitrile] |  |
| 13.4% |  |  | Cc1n[nH]c2c1C(c1cc(OCc3ccc(C(F)(F)F)cc3)ccc1OCc1ccc(C(F)(F)F)cc1)C(C#N)=C(N)O2 (stereo not drawn) [Compound 11l, 6-Amino-4-(2,5-bis((4-(trifluoromethyl)benzyl)oxy)phenyl)-3-methyl-1,4-dihydropyrano[2,3-c]pyrazole-5-carbonitrile] |  |
